This note sets out measurements from publication PMC8018184, “Evaluation of the Pharmacophoric Role of the O–O Bond in Synthetic Antileishmanial Compounds: Comparison between 1,2-Dioxanes and Tetrahydropyrans” (Journal of Medicinal Chemistry, 2020).

Format in all cases: cell-based, Leishmania donovani
For experiment [1], the system named is L. donovani promastigotes (MHOM/NP/02/BPK282/0cl4). In words: Promastigote growth inhibition assay (alamarBlue). The conditions noted are these: for IC50: Leishmania donovani, 72 h, alamarBlue, HOMEM 20% FBS, compounds as racemates, read-out: IC50 (concentration causing 50% growth inhibition) against promastigotes of L. donovani; for Selectivity index (SI) = CC50/IC50: Vero CC50 / IC50 on promastigotes. As for the experimental part: The bioactivity of the new tetrahydropyrans 3 was initially evaluated against the extracellular promastigote forms of L. donovani (MHOM/NP/02/BPK282/0cl4) as the reference strain, indicative of the leishmaniasis in the Old World. The results were expressed as IC50, i.e., the concentration of the product required to inhibit the parasite growth by 50%. When a compound could inhibit the promastigote growth, its cytotoxicity was also evaluated on Vero cells (Table 1) and on THP-1 cells (see the Supporting Information, Table S3) and the corresponding selectivity indexes (SIs) were calculated. The performance of each tetrahydropyran 3 was compared with that of the corresponding endoperoxide 2 (Table 1).
Promastigotes of a L. donovani reference strain (MHOM/NP/02/BPK282/0cl4) were maintained at 26 °C in a liquid custom-made medium, HOMEM Cat. no: 1140-082 (Gibco Thermo Fisher Scientific Inc., Waltham, USA), complete composition: S-MEM (Eagle) 1 × 1 liter pack, glucose (1–2 g), sodium bicarbonate (0.3 g), sodium pyruvate (0.11 g), p-aminobenzoic acid (1 mg), biotin (0.1 mg), HEPES (4.77–5.96 g), MEM amino acids (10 mL), MEM nonessential amino acids (10 mL), pH 7.5–7.6, supplemented with 20% fetal bovine serum (FBS, EuroClone SpA, Milan, Italy)[123] and 1% penicillin–streptomycin (EuroClone SpA).
To evaluate the efficacy of the compounds on the extracellular forms of L. donovani, promastigotes in their late log/stationary phase were seeded with the complete HOMEM medium at 10^6 cells mL^–1 in 96-well plates and incubated with tested compounds at a range concentration of 600–1.6 μM in a 26 °C incubator for 72 h. The antileishmanial drug amphotericin B was used as the positive control, and untreated promastigotes were the negative control. Each experiment was performed in duplicate. Stock solution of the compounds was 8 mM in DMSO. […] The alamarBlue assay includes a colorimetric growth indicator based on detection of metabolic activity. Specifically, the system incorporates an oxidation–reduction (REDOX) indicator that changes color in response to chemical reduction of the growth medium resulting from cell growth. The method monitors the reducing environment of proliferating cells; the cell-permeable resazurin is added (nonfluorescent form, blue color) and, upon entering cells, is reduced to resorufin (fluorescent form, red color) as a result of cellular metabolic activity. Evaluation was performed by adding 20 μL of alamarBlue and incubating at 26 °C for 24 h. The reducing environment was evaluated after 24 h by absorbance measurement at the Multiskan ascent plate reader (Thermo Fisher Scientific Inc.) at 550 and 630 nm.
A general note: The colour change of resazurin is a common sign of viable cells or microbes.

For experiment [2], the system named is ROS in L. donovani promastigotes. Nature of the experiment: Evaluation of intracellular ROS levels (H2DCFDA fluorescence). The conditions noted are these: for Intracellular ROS levels compared to negative control (untreated promastigotes): compound at its IC50, 24 h, H2DCFDA; for ROS production compared to positive controls: compound at its IC50, H2O2 20 μM, miltefosine 22 μM. As to the method:
We evaluated the ability of our synthetic compounds to generate reactive oxygen species (ROS) in L. donovani promastigotes. We selected the endoperoxide 2a and the tetrahydropyran 3a as model substrates, which were administered to the parasites in the presence of 2,7-dichlorodihydrofluorescein diacetate (H2DCFDA), a live-cell-permeable dye, which is oxidized by ROS, providing a fluorescent compound (DCF) (see Experimental Section for details).[103] Therefore, the resultant fluorescence is a direct measure of the amount of ROS generated.
To monitor the effect of the compounds on the production of ROS in promastigotes of L. donovani, an oxidant-sensitive green fluorescent dye (2,7-dichlorofluorescein diacetate, H2DCFDA) was used. […] Subsequently, parasitic cells were washed in PBS (pH 7.4), loaded with 10 μM permeant probe H2DCFDA (Sigma, St. Louis, MO, USA), and incubated in the dark for 35 min at 26 °C.[103] H2O2 (20 μM)[124] and miltefosine (22 μM)[125] were used as positive controls. Each experiment was performed in triplicate. Reactive oxygen species (ROS) production was measured as an increase in fluorescence caused by the conversion of nonfluorescent dye to highly fluorescent 2,7-dichlorofluorescein, with an excitation wavelength of 488 nm and an emission wavelength of 530 nm. Plates were read by employing a fluorescence microplate reader Varioskan Flash (Thermo Fisher Scientific Inc.).

The subject of experiment [3] is L. donovani promastigotes. Nature of the experiment: Promastigote growth inhibition in the presence of an iron chelator (DFO or DFP), isobologram. To be noted: for Interaction with the iron chelator DFP (isobologram, FIC): FIC values > 0.5 and < 4; for IC50: Leishmania donovani, no DFO, read-out: IC50 against promastigotes, absence of DFO; for Interaction with the iron chelator DFO (isobologram, ΣFIC): synergism <0.5, antagonism >4.0, else additivity. As for the experimental part:
At first, we determined IC50 and CC50 values of the iron chelator DFO (187 and >400 μM, respectively). Then, the effect of the iron chelator presence on the bioactivity of the two compounds was studied by coincubating 2a and 3a with DFO at different concentrations. The variation of IC50 of the compounds in relation to the different doses of DFO was determined by the alamarBlue assay (Table 3), and the isobole technique was employed to depict the interactions of 2a and 3a with DFO (Figure 6).
The isobole technique was used for depicting synergistic or antagonistic interaction between the iron chelator and the two compounds on the parasite growth (Figure 6). Combinations are expressed as the sum of the fractional inhibitory concentrations (ΣFIC), and FIC values are defined as synergism (<0.5), antagonism (>4.0), and additivity (no interaction). The strength of synergism (or antagonism) is indicated by the degree of deviation from the line of additivity.
[…]. Each compound was added using a concentration range including the IC50 of each compound. Each experiment was performed in duplicate. The viability of the parasites was determined by the alamarBlue assay. The fractional inhibitory concentration (FIC; FIC = IC50 of the drug in the combination/IC50 of the drug when tested alone) of each compound was calculated and plotted as an isobologram.

Take `CCCCC1(CCCC)CO[C@@](C)(OC)[C@@H](CNCCCn2ccnc2)C1` (racemic) [3a, N-((5,5-Dibutyl-2-methoxy-2-methyltetrahydro-2H-pyran-3-yl)methyl)-3-(1H-imidazol-1-yl)propan-1-amine]: in experiment [1], the IC50 worked out at 3.4 ± 0.4 µM and the “Selectivity index (SI) = CC50/IC50” value amounted to 10.4. Also, in experiment [2], the “Intracellular ROS levels compared to negative control (untreated promastigotes)” value is reported as “increase in the intracellular ROS levels” and the “ROS production compared to positive controls” value was “higher ROS production when compared to H2O2”. Besides, in experiment [3], the “Interaction with the iron chelator DFP (isobologram, FIC)” value is “no antagonism or synergism”; the IC50 came out at 3.4 ± 0.4 µM; the “Interaction with the iron chelator DFO (isobologram, ΣFIC)” value was “additive effects”.
Turning to `CCCCC1(CCCC)C[C@H](CNCCCn2ccnc2)[C@](C)(OC)OO1` [2a], in experiment [1], the IC50 worked out at 7.5 ± 1.7 µM and the “Selectivity index (SI) = CC50/IC50” value was determined as 9.6. In addition, in experiment [2], the “Intracellular ROS levels compared to negative control (untreated promastigotes)” value is listed as “increase in the intracellular ROS levels”; the “ROS production compared to positive controls” value is “lower fluorescence intensity when compared to H2O2 and miltefosine”. For the same molecule, in experiment [3], the “Interaction with the iron chelator DFP (isobologram, FIC)” value is “no antagonism or synergism”; the IC50 amounted to 7.5 ± 1.7 µM; the “Interaction with the iron chelator DFO (isobologram, ΣFIC)” value is reported as “additive effects”.
